Data set [1] deals with T1, TLR3 (Mus musculus, UniProt Q99MB1).
T1 sequence (Q99MB1 26-905): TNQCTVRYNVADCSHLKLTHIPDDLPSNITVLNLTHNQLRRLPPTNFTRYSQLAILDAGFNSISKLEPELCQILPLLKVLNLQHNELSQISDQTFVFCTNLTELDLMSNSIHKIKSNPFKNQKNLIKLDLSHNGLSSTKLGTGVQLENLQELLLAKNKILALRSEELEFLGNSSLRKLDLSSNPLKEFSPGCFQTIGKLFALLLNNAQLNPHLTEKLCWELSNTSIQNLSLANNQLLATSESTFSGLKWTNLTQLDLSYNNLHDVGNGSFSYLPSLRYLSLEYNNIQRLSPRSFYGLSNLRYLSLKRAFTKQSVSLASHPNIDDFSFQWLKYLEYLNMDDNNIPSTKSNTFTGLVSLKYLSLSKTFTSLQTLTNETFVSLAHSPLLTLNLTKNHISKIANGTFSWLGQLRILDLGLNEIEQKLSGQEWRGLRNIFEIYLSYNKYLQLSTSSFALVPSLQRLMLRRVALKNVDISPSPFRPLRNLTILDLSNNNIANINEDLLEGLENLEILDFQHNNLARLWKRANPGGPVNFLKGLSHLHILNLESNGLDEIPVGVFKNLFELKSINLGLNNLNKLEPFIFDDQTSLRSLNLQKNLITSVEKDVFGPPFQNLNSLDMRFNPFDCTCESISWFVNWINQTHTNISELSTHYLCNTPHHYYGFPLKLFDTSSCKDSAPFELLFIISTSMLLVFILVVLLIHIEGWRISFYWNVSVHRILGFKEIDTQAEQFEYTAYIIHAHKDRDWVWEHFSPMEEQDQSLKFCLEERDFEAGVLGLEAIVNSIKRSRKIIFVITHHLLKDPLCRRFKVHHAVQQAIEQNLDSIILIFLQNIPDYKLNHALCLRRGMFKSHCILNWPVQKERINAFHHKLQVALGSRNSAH
As to the kind of experiment: Patch-clamp recording of PIC-induced inward currents in dissociated DRG neurons. Type of data set: cell-based, mice. Set-up: from tissue; host or cells: mouse DRG (dissociated small neurons), lumbar spinal cord slices, neck skin of live mice. As for the experimental part:
DRGs were removed aseptically from 4-week old mice and first incubated with collagenase (1.25 mg/ml, Roche)/dispase-II (2.4 units/ml, Roche) at 37° C. for 90 min, then digested with 0.25% trypsin (Cellgro) for 8 min at 37° C., followed by 0.25% trypsin inhibitor (Sigma). Cells were then mechanically dissociated with a flame polished Pasteur pipette in the presence of 0.05% DNAse I (Sigma). DRG cells were plated onto poly-D-lysine and laminin-coated slide chambers (for immunocytochemistry) or glass cover slips (for electrophysiology) and grown in a neurobasal defined medium (with 2% B27 supplement, Invitrogen) in the presence of 5 μM AraC, at 36.5° C., with 5% carbon dioxide.
Single-cell RT-PCR was performed as previously described (6). DRG cultures were prepared as above described and grown on glass cover slips coated with poly-D-lysine and laminin. Whole-cell patch clamp recordings were performed at room temperature to measure currents in dissociated DRG neurons with small-sizes using Axopatch-200B amplifier (Axon Instruments, Union City, USA). The patch pipettes were pulled from borosilicate capillaries (Chase Scientific Glass Inc., Rockwood, Calif., USA). When filled with the pipette solution, the resistance of the pipettes was 4˜5 MΩ. The recording chamber (volume 300 μl) was continuously superfused (3-4 ml/min). Series resistance was compensated for (>80%), and leak subtraction was performed. Data were low-pass-filtered at 2 KHz, sampled at 10 KHz. The pClamp8 (Axon Instruments) software was used during experiments and analysis. The pipette solution was composed of (in mM): 126 K-gluconate, 10 NaCl, 1 MgCl2, 10 EGTA, 2 NaATP, 0.1 MgGTP, pH 7.3 with KOH, 295-300 mOsm. Extracellular solution contained (in mM): 140 NaCl, 5 KCl, 2 CaCl2, 1 MgCl2, 10 HEPES, 10 glucose adjusted to pH 7.4 with NaOH, osmolarity 310 mOsm. Inward currents were recorded at a holding potential of −60 mV. In some experiments, following parch-clamp recording, the recorded DRG neurons were collected for single-cell RT-PCR analysis.
A general note: In patch-clamp work, channel activity is measured electrically.

The target in data set [2] is T1, TLR3. Put plainly: Patch clamp recording of sEPSCs in lamina II neurons of spinal cord slices, PIC. Format: cell-based. Set-up: from tissue; host or cells: mouse DRG (dissociated small neurons), lumbar spinal cord slices, neck skin of live mice. The conditions noted are these: PIC 100 ng/ml, slices of WT but not Tlr3-/- mice; P<0.05. As for the experimental part: As we previously reported (18), a portion of the lumbar spinal cord (L4-L5) was removed from mice (4-6 week old) under urethane anesthesia (1.5-2.0 g/kg, i.p.) and kept in pre-oxygenated ice-cold Krebs solution. Transverse slices (600 μm) were cut on a vibrating microslicer. The slices were perfused with Kreb's solution (8-10 ml/min) that was saturated with 95% O2 and 5% CO2 at 36±1° C. for at least 1-3 hours prior to experiment. The Kreb's solution contains (in mM): NaCl 117, KCl 3.6, CaCl2 2.5, MgCl2 1.2, NaH2PO4 1.2, NaHCO3 25, and glucose 11.
The whole cell patch-clamp recordings were made from lamina IIo neurons in voltage clamp mode. Patch pipettes were fabricated from thin-walled, borosilicate, glass-capillary tubing (1.5 mm o.d., World Precision Instruments). After establishing the whole-cell configuration, neurons were held at the potential of −70 mV to record sEPSCs. The resistance of a typical patch pipette is 5-10 M. The internal solution contains (in mM): potassium gluconate 135, KCl 5, CaCl2 0.5, MgCl2 2, EGTA 5, HEPES 5, ATP-Mg 5. Membrane currents were amplified with an Axopatch 200B amplifier (Axon Instruments) in voltage-clamp mode. Signals were filtered at 2 kHz and digitized at 5 kHz. Data were stored with a personal computer using pCLAMP 10 software and analyzed with Mini Analysis (Synaptosoft Inc.).

In data set [3] the target is T1, TLR3. Put plainly: Scratching after intradermal PIC in naive mice and after AEW dry skin treatment. Further details: from tissue; host or cells: mouse DRG (dissociated small neurons), lumbar spinal cord slices, neck skin of live mice. Format: in vivo. As for the experimental part: Mice were habituated to the testing environment daily for at least two days before analysis. <ice were shaved at the back of the neck the day before injection. We put mice in small plastic chambers (14×18×12 cm) on an elevated metal mesh floor and allowed 30 min for habituation before examination. We injected 50 μl of pruritic agent intradermally in the nape of the neck and counted the number of scratches every 5 min for 30 min after the injection. A scratch was counted when a mouse lifted its hindpaw to scratch the shaved region and returned the paw to the floor or to the mouth for licking. On the basis of previous reports (4; 5) and our preliminary studies (6), we chose the following doses for pruritic agents: 25 ng for ET-1, 20 μg for 5-HT, 100 μg for HTMT, compound 48/80, and SLIGRL-NH2, 200 μg for chloroquine, 300 μg for trypsin, and 500 μg for histamine and 4-MeHA. We also injected diluted formalin (0.6%, 50 μl) in the nape to induce scratching behaviors. The experimenters were blinded to the genotypes of the animals. We also produced a dry skin model for chronic itch as described in detail previously (7), by painting neck skin with acetone and diethyether (1:1) following by water (AEW) twice a day for 7 days, and examined spontaneous itch by counting the number of scratches for 60 minutes on day 8 and 9.

Data set [4] deals with TLR3. Put plainly: TLR3 protein and mRNA levels in DRGs after intrathecal TLR3 antisense ODNs (Western blotting, quantitative PCR). Type of data set: in vivo. The conditions noted are these: intrathecal AS-ODNs 10 μg daily for 5 days, adult WT mice; P<0.05. As to the method:
(§1) We injected pruritic agents intradermally in the nape of the neck (50 μl) or cheek (10 μl), respectively. We purchased histamine, compound 48/80, trypsin, chloroquine, serotonin, TLR3 agonist polyribo-inosinic/cytidylic acid (PIC), and complete Freund's adjuvant (CFA) from Sigma-Aldrich, histamine H1 receptor agonist histamine-trifluoromethyl-toluidine (HTMT), capsaicin, and the H4R-selective agonist 4-methylhistamine (4-MeHA) from Tocris, and endothelin-1 (ET-1) from ALEXIS Biochemicals. […] Antisense oligodeoxynucleotides (AS-ODN; 5′-[…]-3′; SEQ ID NO:1) targeting TLR3 and mismatch ODN (MM-ODN; 5′-[…]-3′; SEQ ID NO:2) were synthesized by Invitrogen according to the published sequences (2). AS-ODN (10 μg) or MM-ODN were intrathecally injected once a day for 5 days. To target DRG and spinal cord cells, TRIF inhibitor (10 μl) were delivered intrathecally into cerebral spinal fluid via a lumbar puncture. […]
Mice were terminally anesthetized with isoflurane and transcardially perfused with PBS, and the DRGs were rapidly removed and homogenized in a lysis buffer containing a cocktail of protease inhibitors and phosphatase inhibitors. The protein concentrations were determined by BCA Protein Assay (Pierce), and 30 μg of proteins were loaded for each lane and separated on SDS-PAGE gel (4-15%, Bio-Rad). […]
On the technique in general: A western blot detects proteins with antibodies after separation by electrophoresis.

The subject of data set [5] is TLR4. Put plainly: TLR4 expression in the DRG after intrathecal AS-ODNs (specificity). Format: in vivo, mice. As for the experimental part:
We injected pruritic agents intradermally in the nape of the neck (50 μl) or cheek (10 μl), respectively. We purchased histamine, compound 48/80, trypsin, chloroquine, serotonin, TLR3 agonist polyribo-inosinic/cytidylic acid (PIC), and complete Freund's adjuvant (CFA) from Sigma-Aldrich, histamine H1 receptor agonist histamine-trifluoromethyl-toluidine (HTMT), capsaicin, and the H4R-selective agonist 4-methylhistamine (4-MeHA) from Tocris, and endothelin-1 (ET-1) from ALEXIS Biochemicals. […] Antisense oligodeoxynucleotides (AS-ODN; 5′-[…]-3′; SEQ ID NO:1) targeting TLR3 and mismatch ODN (MM-ODN; 5′-[…]-3′; SEQ ID NO:2) were synthesized by Invitrogen according to the published sequences (2). AS-ODN (10 μg) or MM-ODN were intrathecally injected once a day for 5 days. To target DRG and spinal cord cells, TRIF inhibitor (10 μl) were delivered intrathecally into cerebral spinal fluid via a lumbar puncture. A successful spinal puncture was evidenced by a brisk tail-flick after the needle entry into subarachnoid space (3). Most reagents were dissolved in sterile saline. Capsaicin was dissolved in 10% DMSO.
We collected back hairy skin and cervical DRGs from 4 pairs of WT and Tlr3^−/− mice and isolated total RNAs using RNeasy Plus Mini kit (Qiagen, Valencia, Calif.). […]

Data set [6] has as its system TLR3. As to the kind of experiment: Compound 48/80- and chloroquine-induced scratching after intrathecal TLR3 AS-ODNs. Type of data set: in vivo. The conditions noted are these: intrathecal AS-ODNs 10 μg daily for 5 days, adult mice; P<0.05. As for the experimental part:
as §1
Mice were habituated to the testing environment daily for at least two days before analysis. <ice were shaved at the back of the neck the day before injection. […] We injected 50 μl of pruritic agent intradermally in the nape of the neck and counted the number of scratches every 5 min for 30 min after the injection. A scratch was counted when a mouse lifted its hindpaw to scratch the shaved region and returned the paw to the floor or to the mouth for licking. […]

Data set [7] concerns DRG neurons. As to the kind of experiment: Calcium imaging from cultured DRG neurons. Type of data set: cell-based. The conditions noted are these: wild-type mice DRG neurons. As for the experimental part:
DRGs from all spinal levels of 4-week old mice were collected in cold DH10 (90% DMEM/F-12, 10% FBS, 100 U/ml penicillin, and 100 μg/ml Streptomycin, Gibco) and treated with enzyme solution (5 mg/ml Dispase, 1 mg/ml Collagenase Type I in HPBS without Ca^++ and Mg^++, Gibco) at 37° C. Following trituration and centrifugation, cells were resuspended in DH10, plated on glass cover slips coated with poly-D-lysine (0.5 mg/ml, Stoughton, Mass.) and laminin (10 μg/ml, Invitrogen), cultured in an incubator ([…] and 5% CO2) at 37° C. and used within 24 hours. Neurons were loaded with Fura 2-acetomethoxy ester (Molecular Probes) for 30 min in the dark at room temperature. After washing, cells were imaged at 340 and 380 nm excitation to detect intracellular free calcium. To compare the response to histamine, chloroquine, and capsaicin between WT and Tlr3-deficient DRG neurons, calcium imaging assays were performed with an experimenter blind to genotype (n=3 per genotype), and the percentages of DRG neurons showing calcium responses were determined as we previously described (23).

Data set [8] addresses T2, TRPV1 (Mus musculus, UniProt Q704Y3). As to the kind of experiment: Behavior after intrathecal injection of capsaicin. The conditions noted are these: WT mice. Type of data set: in vivo.
Data set [9] concerns the target T2, TRPV1. Put plainly: Patch clamp recording of sEPSCs in lamina II neurons of spinal cord slices, capsaicin. Particulars: capsaicin 1 μM, WT mice spinal cord slices. Format: cell-based. Further details: central terminals of TRPV1-expressing nociceptors; from tissue; host or cells: mouse lumbar spinal cord slices (L4-L5); live mice (intrathecal capsaicin, resiniferatoxin pretreatment).

T2 sequence (Q704Y3 whole entry): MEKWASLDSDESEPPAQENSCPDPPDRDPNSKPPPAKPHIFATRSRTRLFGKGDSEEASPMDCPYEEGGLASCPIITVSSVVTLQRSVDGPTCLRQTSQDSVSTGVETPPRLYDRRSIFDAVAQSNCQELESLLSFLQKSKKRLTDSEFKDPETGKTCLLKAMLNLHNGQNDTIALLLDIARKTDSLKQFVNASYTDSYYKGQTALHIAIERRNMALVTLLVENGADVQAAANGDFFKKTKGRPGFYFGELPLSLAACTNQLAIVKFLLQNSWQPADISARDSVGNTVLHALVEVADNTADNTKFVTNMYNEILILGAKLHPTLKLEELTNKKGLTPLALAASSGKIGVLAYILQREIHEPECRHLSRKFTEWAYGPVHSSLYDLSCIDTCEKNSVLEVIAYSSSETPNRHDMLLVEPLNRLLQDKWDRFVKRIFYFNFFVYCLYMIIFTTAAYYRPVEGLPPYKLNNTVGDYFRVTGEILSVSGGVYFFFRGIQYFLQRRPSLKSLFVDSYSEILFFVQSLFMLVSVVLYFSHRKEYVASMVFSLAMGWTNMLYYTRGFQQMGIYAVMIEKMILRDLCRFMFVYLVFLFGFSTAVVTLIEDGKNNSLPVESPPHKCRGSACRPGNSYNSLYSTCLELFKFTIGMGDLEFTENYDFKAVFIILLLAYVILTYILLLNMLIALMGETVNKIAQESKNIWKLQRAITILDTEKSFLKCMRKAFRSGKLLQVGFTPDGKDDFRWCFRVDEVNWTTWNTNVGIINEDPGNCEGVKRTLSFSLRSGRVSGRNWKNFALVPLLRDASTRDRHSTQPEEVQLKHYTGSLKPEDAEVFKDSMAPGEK

Regarding polyribo-inosinic/cytidylic acid [PIC], the “neurons that respond to PIC” value in data set [1] (PIC 200 ng/ml, small DRG neurons, all also express TLR3 mRNA) is listed as “four neurons (out of ten)”. Further, the “inward currents in DRG neurons from Tlr3-/- mice” value in data set [1] (Tlr3-/- mice) is “failed to induce inward currents”. For the same molecule, the “neurons in which an inward current was elicited” value in data set [1] (dissociated DRG neurons, WT, PIC 100-1000 ng/ml, 5 out of 8) worked out at 60%. In addition, the sEPSC frequency entry in [2] is given as “increased”. In addition, the “scratching responses in naive mice” value in data set [3] (intradermal PIC 0.1-100 μg) is reported as “failed to induce obvious scratching responses”. Besides, the “spontaneous scratching after AEW treatment” value in data set [3] (intradermal PIC, TLR3-dependent, P<0.05) is listed as “able to potentiate”.

Turning to “AS-ODNs: Antisense oligodeoxynucleotides 5′-AACAATTGCTTCAAGTCC-3′ (SEQ ID NO:1) targeting TLR3, synthesized by Invitrogen (DNA, backbone not given here)”, in [4], the “TLR3 protein and mRNA levels in DRGs” value is “partial knockdown”. Besides, the “TLR4 expression in the DRG” value in data set [5] is reported as “did not affect”. Besides, in [6], the chloroquine-induced scratching entry is on record as “significantly inhibited” and the “compound 48/80-induced scratching” value is “significantly inhibited”.

Take `COc1cc(CNC(=O)CCCC/C=C/C(C)C)ccc1O` [capsaicin]: in [7], the “neurons with intracellular Ca2+ increases” value was determined as 39%. Also, the “behavior after intrathecal injection” value in data set [8] was “induced biting, licking and scratching behavior”. The “sEPSC frequency in lamina II neurons” value in data set [9] is on record as “dramatic increase”.
